From patent publication US8987335B2, “Substituted (E)-N′-(1-phenylethylidene)benzohydrazide analogs as histone demethylase inhibitors” (University of Utah Research Foundation, priority 2011, dated 2015) come the findings set out here.

Test [1] concerns the target MAO B (Homo sapiens (Human), UniProt P27338). In words: Monoamine Oxidase assay (MAO-Glo), MAO B. Format: biochemical.
Protocol: (§1) Recombinant (expressed in baculovirus infected BTI insect cells) monoamine oxidase A and monoamine oxidase B (Catalog No. M7316 and M7441, respectively) were purchased from Sigma-Aldrich Co. LLC. […] MAO-Glo™ Assay Kit was purchased from Promega Corporation (Madison, Wis.).
(§2) Briefly, 6.25 μL of test compound was added to each well of a 384-well plate. Enzyme (either MAO A or B) was added (12.5 μL in 2× buffer containing 1 μg protein) and allowed to incubate for 5 minutes. Finally, 6.25 μL of 4×MAO substrate was added to each well. Following a one hour incubation, 25 μL of Luciferin detection reagent was added to each well, and incubated for 20 minutes. Luminescence was then measured on an Envision microplate reader.
(§3) IC50 values are determined using GraphPad Prism 5 software. The data were entered as an X-Y plot into the software as percent inhibition for each concentration of the drug. The concentration values of the drug were log transformed and the nonlinear regression was carried out using the “sigmoidal dose-response (variable slope)” option within the GraphPad software to model the data and calculate IC50 values.
The target in test [2] is MAO A (Homo sapiens (Human), UniProt P21397). In words: Monoamine Oxidase assay (MAO-Glo), MAO A. The format is biochemical.
Protocol: as §1, §2, §3
Test [3] concerns T-47D cells. In words: Cell Viability Assay (ATPlite), T-47D. The format is cell-based. Particulars: Homo sapiens, T47D, 96-hours of incubation, read-out: Cell Growth, IC50. In general terms: In ATP-based viability assays light output follows the ATP content of the culture.
Protocol: Cells were cultured according to the procedures provided. […] Cells were cultured at 37° C. and 5% CO2.
as §3
The target in test [4] is LSD1 (Homo sapiens (Human), UniProt O60341). Nature of the test: LSD1 Histone Demethylase Assay (LSD1 Inhibitor Screening Assay Kit). Format: biochemical. Particulars: for LSD1 biochemical activity (in words): SAR discussion.
Protocol: Briefly, test compounds were diluted to 20× the desired test concentration in 100% DMSO and 2.5 μL of the diluted drug sample was added to a black 384-well plate. The LSD1 enzyme stock was diluted 17-fold with assay buffer and 40 μM of the diluted LSD1 enzyme was added to the appropriate wells.
as §3
Test [5] relates to MDA-MB-235. In words: Cell Viability Assay (ATPlite), MDA-MB-235. The format is cell-based. Particulars: 96-hours of incubation, read-out: Cell Growth, IC50. On the procedure:
Cancer cell lines were obtained from ATCC. Cells were cultured according to the procedures provided. In addition to the supplements indicated in Table 4, media were also supplemented with 1% penicillin/streptomycin (100 IU/mL penicillin and 100 μg/mL streptomycin). Cells were cultured at 37° C. and 5% CO2. ATCC is the American Type Culture Collection (Manassas, Va.).
Cell viability was determined using ATPlite™ Luminescence Assay System (PerkinElmer Inc., Waltham, Mass.) using the various cell-lines described above and in Table 4. Briefly, cells were seeded in 96-well plates and then treated with different concentrations of inhibitor (0.1% final DMSO concentration). After 96-hours of incubation, ATPlite detection reagent was added directly to the culture well. Luminescence was read 5 minutes later on an Envision microplate reader.

Molecules are shown by their SMILES.

Chain of MAO B (P27338 whole entry): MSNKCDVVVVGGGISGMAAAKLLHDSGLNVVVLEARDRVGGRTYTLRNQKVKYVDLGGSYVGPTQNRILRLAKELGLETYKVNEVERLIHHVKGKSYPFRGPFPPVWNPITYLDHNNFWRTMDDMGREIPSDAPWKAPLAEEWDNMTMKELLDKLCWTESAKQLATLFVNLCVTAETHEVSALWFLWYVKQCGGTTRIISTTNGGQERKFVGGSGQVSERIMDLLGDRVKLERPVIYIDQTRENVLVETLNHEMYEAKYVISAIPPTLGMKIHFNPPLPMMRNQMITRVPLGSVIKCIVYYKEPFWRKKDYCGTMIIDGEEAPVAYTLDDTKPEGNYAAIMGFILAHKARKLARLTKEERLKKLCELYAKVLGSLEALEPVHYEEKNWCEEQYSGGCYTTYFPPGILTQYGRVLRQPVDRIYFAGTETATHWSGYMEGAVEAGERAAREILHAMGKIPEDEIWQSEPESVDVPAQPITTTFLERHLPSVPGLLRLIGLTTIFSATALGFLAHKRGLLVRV
Chain of MAO A (P21397 whole entry): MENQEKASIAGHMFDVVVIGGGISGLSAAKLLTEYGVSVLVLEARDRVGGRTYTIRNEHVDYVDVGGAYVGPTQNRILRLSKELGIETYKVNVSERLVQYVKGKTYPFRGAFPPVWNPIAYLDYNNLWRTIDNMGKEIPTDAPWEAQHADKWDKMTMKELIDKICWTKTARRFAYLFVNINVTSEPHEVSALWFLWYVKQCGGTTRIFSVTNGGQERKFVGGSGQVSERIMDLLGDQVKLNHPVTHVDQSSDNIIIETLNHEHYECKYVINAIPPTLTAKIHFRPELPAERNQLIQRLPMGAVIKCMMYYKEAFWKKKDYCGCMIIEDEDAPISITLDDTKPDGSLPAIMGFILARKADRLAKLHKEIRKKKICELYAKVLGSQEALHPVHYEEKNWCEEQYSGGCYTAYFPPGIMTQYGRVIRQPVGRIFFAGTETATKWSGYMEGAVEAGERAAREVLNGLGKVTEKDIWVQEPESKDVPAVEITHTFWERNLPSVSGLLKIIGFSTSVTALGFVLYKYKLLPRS

In the case of `O=C(N/N=C/c1ccccc1O)c1ccc(O)cc1` [Compound 1], the “activity against MAO B (in words)” value in test [1] is listed as “comparable activity to tranylcypromine”. In addition, in test [2], the “activity against MAO A (in words)” value is “no activity”.

In the case of `COc1ccc(Cl)cc1C(=O)NNC(=O)c1cc(S(=O)(=O)N2CCOCC2)ccc1F` [Compound 6], the half-maximal inhibitory concentration (IC50) (usually the concentration that inhibits the measured activity by half) in test [3] is greater than 10000 nM. In addition, the “LSD1 biochemical activity (in words)” value in test [4] is “lack of biochemical activity”.

With `O=C(NNC(=O)c1cc(S(=O)(=O)N2CCOCC2)ccc1F)c1cccc(Cl)c1` [Compound 7], the IC50 in test [3] was greater than 10000 nM.

For the compound `CCN(CC)S(=O)(=O)c1ccc(F)c(C(=O)NNC(=O)c2ccc(C)cc2)c1` [Compound 8], in test [3], the IC50 is greater than 10000 nM. The “LSD1 biochemical activity (in words)” value in test [4] is given as “lower activity”.

On to `C/C(=N\NC(=O)c1cccc(S(=O)(=O)N2CCOCC2)c1)c1cccc2ccccc12` [Compound 10], for which the IC50 in test [3] is greater than 10000 nM. In test [4], the IC50 is greater than 10000 nM and the “LSD1 biochemical activity (in words)” value is “lower activity”.

In the case of `C/C(=N\NC(=O)c1cccc(S(=O)(=O)N2CCOCC2)c1)c1cc(Cl)ccc1O` [Compound 12, (E)-N′-(1-(5-chloro-2-hydroxyphenyl)ethylidene)-3-(morpholinosulfonyl)benzohydrazide], the IC50 is greater than 300000 nM in test [1], greater than 300000 nM in test [2] and 728 nM in test [5].

As for `C/C(=N\NC(=O)c1cccc(S(=O)(=O)N2CCOCC2)c1)c1ccnc(Cl)c1` [Compound 15, (E)-N′-(1-(2-chloropyridin-4-yl)ethylidene)-3-(morpholinosulfonyl)benzohydrazide], in test [3], the IC50 is greater than 10000 nM. The “LSD1 biochemical activity (in words)” value in test [4] is reported as “drop in biochemical activity”.

For the compound `C/C(=N\NC(=O)c1cccc(S(=O)(=O)N2CCOCC2)c1)c1cc(Cl)ccc1Cl` [Compound 16, (E)-N′-(1-(2,5-dichlorophenyl)ethylidene)-3-(morpholinosulfonyl)benzohydrazide], the IC50 in test [3] is greater than 10000 nM. For the same compound, the “LSD1 biochemical activity (in words)” value is listed as “significant drop in activity” in test [4] and “activity was decreased” in test [4] (listed as compound 16).

For the compound `C/C(=N\NC(=O)c1ccc(Cl)c(Br)c1)c1cc(Cl)ccc1O` [Compound 17, (E)-3-bromo-4-chloro-N′-(1-(5-chloro-2-hydroxyphenyl)ethylidene)benzohydrazide], in test [3], the IC50 was found to be 1700 nM. The “LSD1 biochemical activity (in words)” value in test [4] was “drop in biochemical activity”.

As for `C/C(=N\NC(=O)c1cnc(Cl)c(Br)c1)c1cc(Cl)ccc1O` [Compound 19, (E)-5-bromo-6-chloro-N′-(1-(5-chloro-2-hydroxyphenyl)ethylidene)nicotinohydrazide], the IC50 in test [3] came to 1380 nM. Moreover, the “LSD1 biochemical activity (in words)” value in test [4] is on record as “drop in biochemical activity”.

On to `C/C(=N\NC(=O)c1cncc(Cl)c1)c1cc(Cl)ccc1O` [Compound 20, (E)-5-chloro-N′-(1-(5-chloro-2-hydroxyphenyl)ethylidene)nicotinohydrazide], for which, in test [3], the IC50 stood at 270 nM. The “LSD1 biochemical activity (in words)” value in test [4] was “drop in biochemical activity”.

As for `CC/C(=N\NC(=O)c1cccc(S(=O)(=O)N2CCOCC2)c1)c1cc(Cl)ccc1O` [Compound 21, (E)-N′-(1-(5-chloro-2-hydroxyphenyl)propylidene)-3-(morpholinosulfonyl)benzohydrazide], the IC50 in test [3] was 616 nM.

As for `C/C(=N\NC(=O)c1cccc(S(=O)(=O)N2CCOCC2)c1)c1cccnc1` [Compound 22, (E)-3-(morpholinosulfonyl)-N′-(1-(pyridin-3-yl)ethylidene)benzohydrazide], the “LSD1 biochemical activity (in words)” value in test [4] is listed as “drop in biochemical activity”.

Take `C/C(=N\NC(=O)c1cncc(S(C)(=O)=O)c1)c1cc(Cl)ccc1O` [Compound 24, (E)-N′-(1-(5-chloro-2-hydroxyphenyl)ethylidene)-5-(methylsulfonyl)nicotinohydrazide]: in test [1], the “activity against MAO B (in words)” value is given as “no activity”. Besides, the “activity against MAO A (in words)” value in test [2] is given as “no activity”.

Regarding `N[C@@H]1CC1c1ccccc1` (stereo partly drawn) [tranylcypromine, reference compound], the “activity against MAO B (in words)” value in test [1] is “exhibited activity”. In test [2], the “activity against MAO A (in words)” value was “exhibited activity”.
